According to ChEMBL document CHEMBL5113461, “Improving the solubility and antileukemia activity of Wnt/β-catenin signaling inhibitors by disrupting molecular planarity” (Bioorg Med Chem, 2022):
Converted amounts (≈) assume the structure as drawn.

Columns and labels:
[1] = Aqueous solubility of the compound in PBS buffer at pH 7.4 incubated for 6 hrs by HPLC analysis; assay type: physicochemical; details: pH 7.4, 6 h
[2] = system: K562; experiment: cells; details: Homo sapiens, K562, 48 h
[3] = system: K562; experiment: Upregulation of axin-1 levels in human K562 cells by Western blot analysis; assay type: functional, cell-based; details: dose 0.1-10 µM, DDE = dose-dependent effect
[4] = system: K562; experiment: Downregulation of beta-catenin levels in human K562 cells by Western blot analysis; assay type: functional, cell-based; details: dose 0.1-10 µM, DDE = dose-dependent effect

Row | Compound | solubility [1] [µg/mL] | IC50 [2] [µM] | Activity [3] | Activity [4]
1 | Cc1nn(-c2ccccc2Br)c(C)c1C(=O)Nc1ccc2ccccc2n1 | 5.9 (≈ 14 µM) | – | – | –
2 | Cc1c(C(=O)Nc2ccc3ccccc3n2)cnn1-c1ccccc1Br | 0.05 (≈ 0.123 µM) | – | – | –
3 | Cc1ccccc1-n1nnc(C(=O)Nc2ccc3ccccc3n2)c1C | 0.11 (≈ 0.32 µM) | > 50 | – | –
4 | Cc1ccccc1-n1nc(C)c(C(=O)Nc2ccc3ccccc3n2)c1C | 6.7 (≈ 18.8 µM) | – | – | –
5 | CCc1ccccc1-n1nc(C)c(C(=O)Nc2ccc3ccccc3n2)c1C | 5.2 (≈ 14 µM) | – | Dde | Dde
